Measured values: patent US8394823B2, “Triazolopyridine compounds useful as DGAT1 inhibitors” (Bristol-Myers Squibb Company, priority 2008, dated 2013)

What follows are molecules tested against T1, recombinant human DGAT1 (Homo sapiens, UniProt O75907) (assay: DGAT1 enzyme assay). Conditions: membranes from Sf9 insect cells expressing recombinant human DGAT1; 25 μM 2-monooleoyl-glycerol, 25 μM [3H]-stearoyl-CoA, pH 7.4, 30 min, 25° C., SPA.
T1 construct: made in house; host or cells: Sf9 insect cells (baculovirus)
T1 sequence (O75907 1-488): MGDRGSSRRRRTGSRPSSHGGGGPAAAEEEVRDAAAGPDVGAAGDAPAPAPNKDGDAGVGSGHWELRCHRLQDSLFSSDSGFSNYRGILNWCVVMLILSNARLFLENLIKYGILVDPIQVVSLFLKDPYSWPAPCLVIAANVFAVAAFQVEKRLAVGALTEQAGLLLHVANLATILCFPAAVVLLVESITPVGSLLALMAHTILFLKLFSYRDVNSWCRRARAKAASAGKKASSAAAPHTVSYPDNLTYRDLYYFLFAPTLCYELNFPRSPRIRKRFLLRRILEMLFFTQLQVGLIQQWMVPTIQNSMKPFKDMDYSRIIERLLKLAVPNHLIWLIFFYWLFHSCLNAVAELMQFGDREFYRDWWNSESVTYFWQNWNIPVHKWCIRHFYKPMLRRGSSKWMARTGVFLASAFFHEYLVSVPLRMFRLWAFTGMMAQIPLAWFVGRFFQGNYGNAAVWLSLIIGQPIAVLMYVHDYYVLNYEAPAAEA
Type: biochemical
Description: DGAT1 enzyme assays were conducted using membranes isolated from Sf9 insect cells expressing the recombinant human DGAT1 cDNA. The assays were conducted in 384-well plates with total volume of 25 μl at 25° C. In each assay, 300 ng of recombinant human DGAT1 membrane was incubated with 25 μM of 2-monooleoyl-glycerol and 25 μM of [^3H]-stearoyl-CoA in 100 mM potassium phosphate (pH 7.4) for 30 min with various concentrations of compounds delivered in DMSO. The assay was terminated by the addition of 30 μl of Stopping Solution [50 mM HEPES, 5 mg/ml Yittrium Oxide (YOX) Polylysine SPA beads, 3.33 mg/ml Fraction V BSA, 200 μM Mercuric chloride]. The signal was measured using LEADSEEKER^SM for 5 minutes. To calculate the degree of inhibition, the zero level of enzyme activity (blank) was defined by the above assay using Sf9 cell membrane uninfected with baculovirus and the 100% level of DGAT1 enzyme activity was defined by human DGAT1 assay with the vehicle DMSO. The IC50 values of inhibitors were determined by Excel-fit.

SMILES	IC50
CC(C)[C@H](Cc1nnc2cc(-c3ccc(Nc4nc5ccc(Cl)cc5s4)cc3)ccn12)C(=O)O [Example 1, (S)-2-((7-(4-(6-Chlorobenzo[d]thiazol-2-ylamino)phenyl)-[1,2,4]triazolo[4,3-a]pyridin-3-yl)methyl)-3-methylbutanoic acid]	10 nM
COC(=O)[C@@H](Cc1nnc2cc(-c3ccc(Nc4nc5ccc(Cl)cc5s4)cc3)ccn12)C(C)C [Example 1F, (S)-Methyl 2-((7-(4-(6-chlorobenzo[d]thiazol-2-ylamino)phenyl)-[1,2,4]triazolo[4,3-a]pyridin-3-yl)methyl)-3-methylbutanoate]	7200 nM
CC(C)[C@@H](Cc1nnc2cc(-c3ccc(Nc4nc5ccc(Cl)cc5s4)cc3)ccn12)C(=O)O [Example 2, (R)-2-((7-(4-(6-Chlorobenzo[d]thiazol-2-ylamino)phenyl)-[1,2,4]triazolo[4,3-a]pyridin-3-yl)methyl)-3-methylbutanoic acid]	160 nM
COC(=O)[C@H](Cc1nnc2cc(-c3ccc(Nc4nc5ccc(Cl)cc5s4)cc3)ccn12)C(C)C [Example 2B, (R)-Methyl 2-((7-(4-(6-chlorobenzo[d]thiazol-2-ylamino)phenyl)-[1,2,4]triazolo[4,3-a]pyridin-3-yl)methyl)-3-methylbutanoate]	15000 nM
CC(C)C[C@H](Cc1nnc2cc(-c3ccc(Nc4nc5ccc(Cl)cc5s4)cc3)ccn12)C(=O)O [Example 3, (R)-2-((7-(4-(6-Chlorobenzo[d]thiazol-2-ylamino)phenyl)-[1,2,4]triazolo[4,3-a]pyridin-3-yl)methyl)-4-methylpentanoic acid]	320 nM
COC(=O)[C@@H](Cc1nnc2cc(-c3ccc(Nc4nc5ccc(Cl)cc5s4)cc3)ccn12)CC(C)C [Example 3B, (R)-Methyl 2-((7-(4-(6-chlorobenzo[d]thiazol-2-ylamino)phenyl)-[1,2,4]triazolo[4,3-a]pyridin-3-yl)methyl)-4-methylpentanoate]	25000 nM
CC(C)C[C@@H](Cc1nnc2cc(-c3ccc(Nc4nc5ccc(Cl)cc5s4)cc3)ccn12)C(=O)O [Example 4, (S)-2-((7-(4-(6-Chlorobenzo[d]thiazol-2-ylamino)phenyl)-[1,2,4]triazolo[4,3-a]pyridin-3-yl)methyl)-4-methylpentanoic acid]	2800 nM
COC(=O)[C@H](Cc1nnc2cc(-c3ccc(Nc4nc5ccc(Cl)cc5s4)cc3)ccn12)CC(C)C [Example 4B, (S)-Methyl 2-((7-(4-(6-chlorobenzo[d]thiazol-2-ylamino)phenyl)-[1,2,4]triazolo[4,3-a]pyridin-3-yl)methyl)-4-methylpentanoate]	50000 nM
CCCC[C@H](Cc1nnc2cc(-c3ccc(Nc4nc5ccc(Cl)cc5s4)cc3)ccn12)C(=O)O [Example 5, (R)-2-((7-(4-(6-Chlorobenzo[d]thiazol-2-ylamino)phenyl)-[1,2,4]triazolo[4,3-a]pyridin-3-yl)methyl)hexanoic acid]	200 nM
O=C(O)[C@@H](Cc1nnc2cc(-c3ccc(Nc4nc5ccc(Cl)cc5s4)cc3)ccn12)CC1CCCCC1 [Example 6, (R)-3-(7-(4-(6-Chlorobenzo[d]thiazol-2-ylamino)phenyl)-[1,2,4]triazolo[4,3-a]pyridin-3-yl)-2-(cyclohexylmethyl)propanoic acid]	3600 nM
O=C(O)[C@@H](Cc1nnc2cc(-c3ccc(Nc4nc5ccc(Cl)cc5s4)cc3)ccn12)C1CCCCC1 [Example 7, (S)-3-(7-(4-(6-Chlorobenzo[d]thiazol-2-ylamino)phenyl)-[1,2,4]triazolo[4,3-a]pyridin-3-yl)-2-cyclohexylpropanoic acid]	2800 nM
O=C(O)CCc1nnc2cc(-c3ccc(Nc4nc5ccc(Cl)cc5s4)cc3)ccn12 [Example 8, 3-(7-(4-(6-Chlorobenzo[d]thiazol-2-ylamino)phenyl)-[1,2,4]triazolo[4,3-a]pyridin-3-yl)propanoic acid]	490 nM
